# Laboratory results as given in patent US20240189315A1, “Cyclic Pyridine Derivatives as cGAS Inhibitors” (Boehringer Ingelheim International GmbH, priority 2022, published 2024).
# Like-named read-outs stand apart in the source and are kept apart here.
# Key:
# Human cGAS enzyme = Human cGAS enzyme (Homo sapiens (Human), UniProt Q8N884); assay: Human cGAS enzyme assay (hcGAS IC50, in vitro), cGAMP formation by RapidFire MS; format: biochemical;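 note: recombinant human cGAS activated by 45 bp dsDNA with 30 µM each ATP and GTP, 90 min, cGAMP vs cyclic-di-GMP standard by MS, 8-point titration from 10 µM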
# [1] = molecular target: cellular cGAS activity in dsDNA-stimulated human whole blood (Homo sapiens (Human), UniProt Q8N884); assay: Human whole blood assay (hWB IC50): IFNα2a production after dsDNA transfection; format: cell-based;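 note: IFNα-2a in plasma measured by MSD electrochemiluminescence immunoassay after 22 h at 37 °C, 8-point dilution series from 10 µM top concentration, DMSO wells as controls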
# [2] = tested on: pathway directly downstream of cGAS in cGAMP-stimulated THP1-Dual cells; assay: cGAMP stimulated counter cell assay (THP1(cGAMP) IC50): IFN induction in cGAMP-stimulated THP1-Dual cells; format: cell-based, human; conditions: for IC50: Homo sapiens, THP1-Dual; for Ratio THP(cGAMP) IC50/ THP(vir) IC50: selectivity for cGAS inhibition
# From the text: 6.2 Method: Human cGAS Cell Assay and cGAMP Stimulated Counter Cell Assay (THP1(vir) IC50 and THP1(cGAMP) IC50)
# THP1-Dual™ cells (InvivoGen #thpd-nfis) expressing IRF dependent Lucia luciferase reporter were used as basis for both assays. For the detection of cellular cGAS activity cells were stimulated by a baculovirus (pFastbac-1, Invitrogen, no coding insert) infection that delivers the cGAS enzyme stimulating double-stranded DNA (measurement of THP1(vir) IC50).
# For the counter assay, cells were stimulated by cGAMP (SigmaAldrich #SML1232) to activate the identical pathway independent and directly downstream of cGAS (measurement of THP1(cGAMP) IC50). Pathway activity was monitored by measuring the Lucia luciferase activity induced by either DNA stimulated cGAS enzyme activity (measurement of THP1(vir) IC50) or by cGAMP directly (measurement of THP1(cGAMP) IC50, counter assay).
# Compounds were delivered in 10 mM DMSO solution, serially diluted and transferred to the 384 well assay plate (Greiner #781201) using an Echo acoustic dispenser. Typically, 8 concentrations were used with the highest concentration at 10 μM in the final assay volume followed by ˜1:5 dilution steps. DMSO concentration was set to 1% in the final assay volume. The 384 well assay plate contained 21 test compounds (column 1-22), and DMSO in column 23 and 24.
# Cells, cultivated according to manufacturer conditions, were harvested by centrifugation at 300 g/10 min and were then resuspended and diluted to 1.66E5 cells/ml in fresh cell culture medium (RPMI 1640 (Gibco #A10491-01), 10% FCS (Gibco #10500), 1× GlutaMax (Gibco #35050-061), 1× Pen/Strep solution (Gibco #15140-122), 100 μg/ml Normocin (InvivoGen #ant-nr), 100 μg/ml Zeocin (InvivoGen #ant-zn), 10 μg/ml Blasticidin S (Life Technologies #A11139-03)). The baculovirus solution was then added 1:200 (have varied according to virus batch) to the cells (measurement of THP1(vir) IC50). […] 30 μL of the cell/virus-mix were added to each well of the compound plate from column 1-23 via MultiDrop Combi dispenser (5000 cells/well). In column 24, 30 μl/5000 cells/well without virus were added as a low control.
# The plates were then incubated for 18 h at 37° C. in a humidified incubator.
# Following that, 15 μL of QuantiLuc detection reagent (InvivoGen #rep-qlcg5) were added to each well using a MultiDrop Combi. Measurement was done immediately after the addition using an EnVision reader (US-luminescence read-mode).
# Data Evaluation and Calculation:
# For data evaluation and calculation, the measurement of the low control was set as 0% control and the measurement of the high control was set as 100% control. The IC50 values were calculated using the standard 4 parameter logistic regression formula. Calculation: [y=(a−d)/(1+(x/c)^b)+d], a=low value, d=high value; x=conc M; c=IC50 M; b=slope
# [3] = molecular target: cellular cGAS activity in baculovirus-stimulated THP1-Dual cells (Homo sapiens (Human), UniProt Q8N884); assay: Human cGAS cell assay (THP1(vir) IC50): IFN induction in virus-stimulated THP1-Dual cells, IRF Lucia luciferase reporter; format: cell-based;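 note: Eight-point dilution series starting at 10 µM, 1% DMSO, 18 h at 37 °C, luminescence read-out, virus-free wells as 0% and DMSO-treated virus-stimulated wells as 100%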
# [4] = Table 1, dsDNA-stimulated human whole blood
# [5] = Table 1, cGAMP-stimulated THP1 cells, read-out: THP(cGAMP) IC50
# [6] = Table 1, virus-stimulated THP1 cells, read-out: THP(vir) IC50
# Chain of cellular cGAS activity in dsDNA-stimulated human whole blood (Q8N884 whole entry): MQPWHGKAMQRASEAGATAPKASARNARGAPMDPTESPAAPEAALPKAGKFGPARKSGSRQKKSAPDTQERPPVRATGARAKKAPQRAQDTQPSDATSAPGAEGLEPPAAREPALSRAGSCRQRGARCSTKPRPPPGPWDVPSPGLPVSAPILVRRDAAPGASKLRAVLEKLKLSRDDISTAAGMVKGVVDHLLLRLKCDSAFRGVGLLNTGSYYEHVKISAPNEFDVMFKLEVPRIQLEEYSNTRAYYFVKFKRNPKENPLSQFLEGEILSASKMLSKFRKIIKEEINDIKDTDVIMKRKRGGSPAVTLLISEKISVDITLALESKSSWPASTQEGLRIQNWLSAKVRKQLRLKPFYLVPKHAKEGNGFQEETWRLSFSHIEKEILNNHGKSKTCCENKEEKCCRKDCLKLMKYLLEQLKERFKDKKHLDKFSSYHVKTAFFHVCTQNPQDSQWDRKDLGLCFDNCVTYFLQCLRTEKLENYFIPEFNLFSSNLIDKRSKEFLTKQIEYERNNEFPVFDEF
# Chain of cellular cGAS activity in baculovirus-stimulated THP1-Dual cells (Q8N884 whole entry): as above
# Chain of Human cGAS enzyme (Q8N884 whole entry): as above
Compound,IC50 (Human cGAS enzyme; Table 1),"IC50 [1, 4]","IC50 [3, 6]","IC50 [2, 5]",Ratio THP(cGAMP) IC50/ THP(vir) IC50 ([2]; Table 1),"IC50 ([1]; Table 2, compounds from WO 2020/142729)","IC50 ([2]; Table 2, compounds from WO 2020/142729, read-out: THP1(cGAMP) IC50)","IC50 ([3]; Table 2, compounds from WO 2020/142729, read-out: THP1(vir) IC50)","IC50 (Human cGAS enzyme; Table 2, compounds from WO 2020/142729 re-tested in the applicant's assay)","IC50 ([3]; virus-stimulated THP1 cells, read-out: THP1(vir) IC50)"
C[C@H]1CN2CC[C@]1(F)c1cc(Cl)cnc1O[C@H]1C[C@@H](C(=O)O)N(C1)c1nc(nc3c1oc1ccccc13)CCCCOCC2=O [Example 27],5 nM,33 nM,83 nM,1700 nM,20,–,–,–,–,–
C[C@H]1CN2CC[C@]1(F)c1cc(Cl)cnc1O[C@H]1C[C@@H](C(=O)O)N(C1)c1nc(nc3c1oc1ccccc13)COCCOCC2=O [Example 14],15 nM,136 nM,36 nM,> 10000 nM,282,–,–,–,–,–
"C[C@H]1CCCOCc2nc(c3oc4ccccc4c3n2)N2C[C@H](C[C@H]2C(=O)O)Oc2ncc(Cl)cc2[C@@]2(F)CCN(C[C@@H]2C)C1=O (single isomer, unassigned) [Example 09]",45 nM,161 nM,240 nM,3500 nM,15,–,–,–,–,–
"C[C@H]1CN2CC[C@]1(F)c1cc(Cl)cnc1O[C@H]1C[C@@H](C(=O)O)N(C1)c1nc(nc3c1oc1ccccc13)C(F)(F)CCCCCC2=O [Example 05, (1R,9S,11S,34S)-4-chloro-1,25,25-trifluoro-34-methyl-31-oxo-8,15-dioxa-6,12,23,32,37-pentaazaheptacyclo[30.2.2.1^9,12.1^13,24.0^2,7.0^14,22.0^16,21]octatriaconta-2,4,6,13,16,18,20,22,24(37)-nonaene-11-carboxylicacid]",12 nM,114 nM,59 nM,9400 nM,158,–,–,–,–,–
"C[C@H]1CN2CC[C@]1(F)c1cc(Cl)cnc1O[C@H]1C[C@@H](C(=O)O)N(C1)c1nc(nc3c1oc1ccccc13)CC(=O)NCCOC2=O [Example 02, (1R,9S,11S,34S)-4-chloro-1-fluoro-34-methyl-26,31-dioxo-8,15,30-trioxa-6,12,23,27,32,37-hexaazaheptacyclo[30.2.2.1^9,12.1^13,24.0^14,22..0^16,21]octatriaconta-2,4,6,13(37),14(22),16(21),17,19,23-nonaene-11-carboxylic acid]",17 nM,115 nM,110 nM,> 10000 nM,94,–,–,–,–,–
C[C@H]1COCCCc2nc(c3oc4ccccc4c3n2)N2C[C@H](C[C@H]2C(=O)O)Oc2ncc(Br)cc2[C@@]2(F)CCN(C[C@@H]2C)C1=O [Example 25],7 nM,116 nM,110 nM,1700 nM,16,–,–,–,–,–
Cc1nc(N2C[C@@H](Cc3nn[nH]n3)C[C@H]2C(=O)O)c2oc3ccccc3c2n1 [Example 25],–,–,–,–,–,> 9990 nM,> 17000 nM,> 17000 nM,–,–
CC(=O)c1cnc2c(c1)[C@@]1(F)CCN(C[C@@H]1C)C(=O)CCCOCCc1nc(c3oc4ccccc4c3n1)N1C[C@H](C[C@H]1C(=O)O)O2 [Example 19],8 nM,146 nM,73 nM,> 10000 nM,136,–,–,–,–,–
"C[C@H]1CN2CC[C@]1(F)c1cc(Cl)cnc1O[C@H]1C[C@@H](C(=O)O)N(C1)c1nc(nc3c1oc1ccccc13)COCCCCC2=O [Example 08, (1R,9S,11S,34S)-4-chloro-1-fluoro-34-methyl-31-oxo-8,15,26-trioxa-6,12,23,32,37-pentaazabestacyclo[30.2.2.1^9,12.1^13,24.0^2,7.0^14,22.0^16,21]octatriaconta-2,4,6,13(37),14(22),16(21),17,19,23-nonaene-11-carboxylic acid]",22 nM,44 nM,140 nM,> 10000 nM,69,–,–,–,–,–
"C[C@H]1CN2CC[C@]1(F)c1cc(Cl)cnc1O[C@H]1C[C@@H](C(=O)O)N(C1)c1nc(nc3c1oc1ccccc13)C(F)(F)COCCCC2=O [Example 21, (1R,9S,11S,34S)-4-chloro-1,25,25-trifluoro-34-methyl-31-oxo-8,15,27-trioxa-6,12,23,32,37-penta-azaheptacyclo[30.2.2.1^9,12.1^13,24.0^2,7.0^14,22.0^16,21]octatriaconta-2,4,6,13(37),14(22),16(21),17,19,23-nonaene-11-carboxylic acid]",5 nM,7 nM,3 nM,10000 nM,3281,–,–,–,–,–
"Cc1nc(N2C[C@@H](Cc3nn[nH]n3)C[C@H]2C(=O)O)c2oc3ccccc3c2n1 [Example No. 25 of WO 2020/142729, reference compound]",–,–,–,–,–,–,–,–,55 nM,17000 nM

# Now from value to compound, other results behind:
IC50 (Human cGAS enzyme; Table 1),"IC50 [1, 4]","IC50 [3, 6]",Compound,"IC50 [2, 5]",Ratio THP(cGAMP) IC50/ THP(vir) IC50 ([2]; Table 1),"IC50 ([1]; Table 2, compounds from WO 2020/142729)","IC50 ([2]; Table 2, compounds from WO 2020/142729, read-out: THP1(cGAMP) IC50)","IC50 ([3]; Table 2, compounds from WO 2020/142729, read-out: THP1(vir) IC50)","IC50 (Human cGAS enzyme; Table 2, compounds from WO 2020/142729 re-tested in the applicant's assay)","IC50 ([3]; virus-stimulated THP1 cells, read-out: THP1(vir) IC50)"
7 nM,79 nM,130 nM,C[C@H]1CN2CC[C@]1(F)c1cc(Cl)cnc1O[C@H]1C[C@@H](C(=O)O)N(C1)c1nc(nc3c1oc1ccccc13)CCCCCC2=O [Example 36],> 10000 nM,80,–,–,–,–,–
7 nM,15 nM,47 nM,C[C@H]1CN2CC[C@]1(F)c1cc(Br)cnc1O[C@H]1C[C@@H](C(=O)O)N(C1)c1nc(nc3c1oc1ccccc13)CCCCOCC2=O [Example 28],1900 nM,39,–,–,–,–,–
7 nM,5 nM,3 nM,C[C@H]1CN2CC[C@]1(F)c1cc(Cl)cnc1O[C@H]1C[C@@H](C(=O)O)N(C1)c1nc(nc3c1oc1ccccc13)C(F)(F)CCCOCC2=O [Example 31],7200 nM,3002,–,–,–,–,–
8 nM,41 nM,36 nM,"C[C@H]1CN2CC[C@]1(F)c1cc(Cl)cnc1O[C@H]1C[C@@H](C(=O)O)N(C1)c1nc(nc3c1oc1ccccc13)CCOCCOC2=O [Example 34, (1R,9S,11S,34S)-4-chloro-1-fluoro-34-methyl-31-oxo-8,15,27,30-tetraoxa-6,12,23,32,37-pentaaza-heptacyclo[30.2.2.1^9,12.1^13,24.0^2,7.0^14,22.0^16,21]octatriaconta-2,4,6,13(37),14(22),16(21),17,19,23-nonaene-11-carboxylic acid]",16000 nM,450,–,–,–,–,–
14 nM,22 nM,57 nM,"CC#Cc1cnc2c(c1)[C@@]1(F)CCN(C[C@@H]1C)C(=O)COCCCCc1nc(c3oc4ccccc4c3n1)N1C[C@H](C[C@H]1C(=O)O)O2 [Example 29, (1R,9S,11S,34S)-1-fluoro-34-methyl-31-oxo-4-(prop-1-yn-1-yl)-8,15,29-trioxa-6,12,23,32,37-penta-azaheptacyclo[30.2.2.1^9,12.1^13,24.0^2,7.0^14,22.0^16,21]octatriaconta-2(7),3,5,13,16(21),17,19,22,24(37)-nonaene-11-carboxylic acid]",2200 nM,39,–,–,–,–,–
–,409 nM,830 nM,"C[C@H]1CN2CC[C@]1(F)c1cc(Cl)cnc1O[C@H]1C[C@@H](C(=O)O)N(C1)c1nc(nc3c1oc1ccccc13)CCCCOC2=O [Example 35, (1R,9S,11S,33S)-4-chloro-1-fluoro-33-methyl-30-oxo-8,15,29-trioxa-6,12,23,31,36-pentaazaheptacyclo[29.2.2.1^9,12.1^13,24.0^2,7.0^14,22.0^16,21]heptatriaconta-2,4,6,13(36),14(22),16(21),17,19,23-nonaene-11-carboxylic acid]",–,–,–,–,–,–,–
